The results in this text go back to patent publication US12465650B2, “Methods and compositions for targeting cancer cells in metastases” (THE BOARD OF REGENTS OF THE UNIVERSITY OF TEXAS SYSTEM, priority 2021, dated 2025).

Bridge positions count the residues as written; N and C are the ends. Ends that are not written are not given here.

Assay [1] relates to 4T1.2 spontaneous metastases. As to the kind of experiment: in vivo homing of individual phage-peptide clones, 4T1.2 model. Further details: species or system Balb/c mice. Conditions: mouse. As for the experimental part:
(§1) Animal experiments: Rodent studies were authorized by the Institutional Animal Care and Use Committees of UTHealth. Spontaneous cancer progression was modelled by injecting 2×10^4 4 T1.2 (mCherry+ Luciferase+) cells into the mammary fat pad of 10-week-old female Balb/c mice (Jackson Laboratory) with a 31-gauge needle. Primary tumor volume was measured weekly with calipers and calculated using the (length×width^2)/2 formula. At a tumor volume of ˜200 mm^3, mice were randomized into two cohorts and administered either vehicle (1×PBS) or cisplatin (Tocris Biosciences; 2.5 mg/kg) retro-orbitally once a week for three weeks. Metastatic progression was monitored with bioluminescence imaging. For experimental metastasis modeling in C57BL/6 mice (Jackson Laboratory), 1×10^5 B16F10 cells were intravenously injected into the tail vein and mice were used after 2 weeks. In both mice models, pulmonary metastases were observed 3 weeks post implantation. The screen for metastasis-homing peptides was performed using a 50:50 mixture of phage cyclic peptide libraries CX7C and CX8C (C: cysteine; X: any amino acid residue) provided by Erkki Koivunen (Arap et al., 2002). For every bio-panning round, a mouse with metastases (between weeks 3 and 4) was intravenously injected with 10^10 transducing units (TU) of the library. After 3 hours of circulation, the heart was perfused with 10 ml phosphate buffered saline (PBS). […] Selected phage were amplified through K91 E. coli infection and quantified via TU counting. For each round, clone enrichment was quantified based on recovery frequency among 96 phage peptide-coding inserts sequenced from PCR-amplified phage DNA (Kolonin et al., 2004). […] Radioactive uptake was measured using a Cobra II automated gamma counter (Packard) and expressed as percentage of the injected dose per gram tissue (% ID/g tissue).
Immunofluorescence for tissue and cell analysis: Immunofluorescence on cells and formalin-fixed paraffin-embedded tissue sections was performed as described Zhang et al., 2012). […] Tissue and cell images were acquired with a Nikon Eclipse TE2000E Widefield Fluorescence Microscope (Nikon Instruments Inc.). Image quantification included 5 random microscopic fields of view at 20× magnification. Images were processed and analyzed with ImageJ software (NIH and University of Wisconsin). Cadherin co-localization was quantified based on the previously described ImageJ software object based-approach (JACoP) methodology based on the Mander's coefficient (Bolte and Cordelieres, 2006).
(§2) Tissue biodistribution was analyzed by immunofluorescence using phage-specific antibodies. […]

Assay [2] relates to mCherry-positive metastatic tumor cells (4T1.2). As to the kind of experiment: in vivo bio-panning of CX7C/CX8C phage-peptide library for lung metastasis-homing peptides. Also on record: species or system Balb/c mice. The settings on record: p≤0.0001. As for the experimental part:
as §1, with “implantation.” for “implantation. The screen for metastasis-homing peptides was performed using a 50:50 mixture of phage cyclic peptide libraries CX7C and CX8C (C: cysteine; X: any amino acid residue) provided by Erkki Koivunen (Arap et al., 2002). For every bio-panning round, a mouse with metastases (between weeks 3 and 4) was intravenously injected with 10^10 transducing units (TU) of the library. After 3 hours of circulation, the heart was perfused with 10 ml phosphate buffered saline (PBS).”, “tissue). […]” for “tissue).”

Assay [3] in a line: phage localization in cancer-free mice. The settings on record: mouse, in vivo. As for the experimental part:
(§3) Immunofluorescence for tissue and cell analysis: Immunofluorescence on cells and formalin-fixed paraffin-embedded tissue sections was performed as described Zhang et al., 2012). Primary antibodies used: rabbit anti-Fd bacteriophage (Sigma Aldrich, 1:500), rabbit anti-Asp175-cleaved Caspase3 (Cell Signaling Technology, 1:100), mouse anti-E Cadherin and mouse anti-N Cadherin (BD Biosciences, 1:100). Secondary antibodies used: donkey Alexa 488-conjugated IgG (Invitrogen, 1:300) and Cy3-conjugated IgG (Jackson ImmunoResearch, 1:300). Biotinylated peptide internalization was visualized with Cy3-conjugated streptavidin IgG (Thermo Fischer Scientific, 1:50). Nuclei were stained with Hoechst 33258 (Invitrogen, 1:2000). Tissue and cell images were acquired with a Nikon Eclipse TE2000E Widefield Fluorescence Microscope (Nikon Instruments Inc.). Image quantification included 5 random microscopic fields of view at 20× magnification. Images were processed and analyzed with ImageJ software (NIH and University of Wisconsin). Cadherin co-localization was quantified based on the previously described ImageJ software object based-approach (JACoP) methodology based on the Mander's coefficient (Bolte and Cordelieres, 2006).
as §2

The test system of assay [4] is 4T1, B16F10 and MDA-MB-231 cancer cells that expressed N-cadherin but not E-cadherin. As to the kind of experiment: co-localization with cadherins in cultured cell lines. The assay is classed as cell-based, murine, human. Conditions: reduced E-Cadherin expression. As for the experimental part: Cell lines and primary cell culture: All cell lines were cultured in DMEM media (Hyclone) supplemented with penicillin-streptomycin (Gibco) and 10% fetal bovine serum (Atlas Biologicals). B16F10, MDA-MB-231, and 3T3L1 cell lines were from ATCC. 4T1.2 (4T1) cells expressing mCherry and Luciferase were a gift from S. Mani. Cisplatin-resistant 4T1.2 (4T1.2-CTX) cells were generated after treatment with cisplatin (Tocris Biosciences, 180 ng/mL).
as §3, with “Secondary antibodies used: donkey Alexa 488-conjugated IgG (Invitrogen, 1:300) and Cy3-conjugated IgG (Jackson ImmunoResearch, 1:300). Biotinylated peptide internalization was visualized with Cy3-conjugated streptavidin IgG (Thermo Fischer Scientific, 1:50). Nuclei were stained with Hoechst 33258 (Invitrogen, 1:2000).” left out, “2006). […]” for “2006).”

Assay [5] has as its system MDA-MB-231 human TNBC cells. As to the kind of experiment: phage-peptide clone binding to human TNBC cells. The assay is classed as cell-based. The settings on record: phage-displayed. The text has this:
(§4) Murine 3T3L1 preadipocytes were used as a negative control and uptake was not observed for BLMP6-phage (FIG. 1C).

The subject of assay [6] is Murine 3T3L1 preadipocytes. As to the kind of experiment: anti-phage immunofluorescence, uptake by negative control cells. The assay is classed as cell-based. As for the experimental part:
as §3, §4

The test system of assay [7] is 4T1, B16F10 and MDA-MB-231 tumor cell lines. As to the kind of experiment: trypan blue exclusion assay, tumor cell lines. The assay is classed as cell-based, murine, human. Conditions: 0.1 mM. As for the experimental part:
Peptides: The exemplary Hunter-killer (HK) peptides HK-BLMP5 and HK-BLMP6 were generated as “all-D-amino acid” cysteine-cyclized peptides (Celtek Bioscience). The proteolysis-resistant peptides were synthesized as acetate salts with an amino-hexanoic acid linker (NH—(CH2)5—CO) conjugating the BLMP and the apoptotic moiety KLAKLAKKLAKLAK (KLAKLAK2): SEQ ID NO:13. Following chromatographic purification, peptides were dissolved in PBS into 10 mM aliquots and stored frozen until further use. For the homing/internalization assay, peptides were biotin-labelled using the Sulfo-NHS-LC-Biotin Kit (APExBIO). Cells were plated in 24 well plates (1×10^5 cells/well), treated. Following treatment with either HK-BLMP6 (0.1 mM) or HK-BLMP5 (0.3 mM) in 0.5 ml serum free culture media for 8 hours, cells were stained with 0.4% Trypan Blue solution (MP Biomedicals) (Daquinag et al., 2016). For radioactive studies, 1,4,7,10-[…]-N′,N″,N′″,N″″-tetra-acetic acid (DOTA) t-Bu ester was purchased from Macrocyclics (Dallas, TX) and peptides were synthesized by Bachem Americas (Torrance, CA). DOTA-peptide conjugation was performed on solid-phase using previously described protocols (Azhdarinia et al., 2011). Radiolabeling with ^67GaCl3 and HPLC determination of purity were performed according to published procedures (Hernandez Vargas et al., 2019). […]

In the case of “CRAGVGRGC (disulfide 1-9 (inferred)) [BLMP6]”, in assay [1], the “distribution within primary 4T1.2 tumor” value is listed as “observed selectively in a sub-population of cells associated with the vasculature” and the localization within macro-metastases entry is on record as “abundant throughout”. The “enrichment in the last round of bio-panning” value in assay [2] was “most significant enrichment”. The “localization to lungs in cancer-free mice” value in assay [3] was “lack of BLMP-phage localization to lungs”. The “binding to cisplatin-resistant 4T1.2 cells” value in assay [4] was “maintaining BLMP6 binding”. Moreover, in assay [5], the “binding to MDA-MB-231 cells” value is “exhibited binding”.

For “CLRHSSKIC (disulfide 1-9 (inferred)) [BLMP5]”, in assay [1], the “distribution within primary 4T1.2 tumor” value is listed as “dispersed throughout the tumor” and the localization within macro-metastases result is recorded as “localized predominantly along the invasive edges”. Moreover, the “enrichment in the last round of bio-panning” value in assay [2] is given as “most significant enrichment”. In assay [3], the “localization to lungs in cancer-free mice” value is reported as “lack of BLMP-phage localization to lungs”. Besides, in assay [6], the “non-specific uptake by 3T3L1 cells compared to phage-displayed BLMP6” value is reported as “higher non-specific uptake”. The “binding to MDA-MB-231 cells” value in assay [5] is “exhibited binding”.

As to “CGVLPYSLC (disulfide 1-9 (inferred)) [BLMP1]”, in assay [6], the “non-specific uptake by 3T3L1 cells compared to phage-displayed BLMP6” value is recorded as “higher non-specific uptake”.

With “CHLSFSTAC (disulfide 1-9 (inferred)) [BLMP4]”, in assay [6], the “non-specific uptake by 3T3L1 cells compared to phage-displayed BLMP6” value is “higher non-specific uptake”.

“CSGVGIASC (disulfide 1-9 (inferred)) [BLMP2]”: the “non-specific uptake by 3T3L1 cells compared to phage-displayed BLMP6” value in assay [6] is reported as “higher non-specific uptake”.

Consider “KLAKLAKKLAKLAK [KLAKLAK2, untargeted apoptosis-inducing moiety]”, for which the “cell death (trypan blue)” value in assay [7] is reported as “No cancer cell death”.

On to “CEGPMYAKC (disulfide 1-9 (inferred)) [BLMP3]”, for which the “non-specific uptake by 3T3L1 cells compared to phage-displayed BLMP6” value in assay [6] is given as “higher non-specific uptake”.
